Results on 20 compounds are retold here after patent publication US9603922B2, “Modulation of NKT cell activity with antigen-loaded CD1d molecules” (VACCINEX, INC., priority 2007, dated 2017).

One experiment has as its system human iNKT cells. As to the kind of experiment: Recognition by human iNKT cells (Table 3 comments). In kind it is cell-based.
Experiment [1] concerns iNKT cells. Nature of the experiment: Activity in vitro of ceramide-like glycolipid antigens (Table 3). The class given is cell-based, mouse. Particulars: partly also in vivo. As for the experimental part:
The ability of a composition of the present invention to modulate an immune response can be readily determined by an in vitro assay. NKT cells for use in the assays include transformed NKT cell lines, or NKT cells which are isolated from a mammal, e.g., from a human or from a rodent such as a mouse. NKT cells can be isolated from a mammal by sorting cells that bind CD1d:α-GalCer tetramers.
The NKT cells employed in the assays are incubated under conditions suitable for proliferation. […] Serial dilutions of the compound can be added to the NKT cell culture medium.
(§1) Alternatively, rather than measurement of an expressed protein such as IL-4 or IFN-γ, modulation of NKT cell activation can be determined by changes in antigen-dependent T cell proliferation as measured by radiolabelling techniques as are recognized in the art. For example, a labeled (e.g., tritiated) nucleotide may be introduced to an assay culture medium. Incorporation of such a tagged nucleotide into DNA serves as a measure of T cell proliferation. […] A difference in the level of T cell proliferation following contact with the compound of the invention indicates the complex modulates activity of the T cells. For example, a decrease in NKT cell proliferation indicates the compound can suppress an immune response. An increase in NKT cell proliferation indicates the compound can stimulate an immune response.

A further experiment deals with mouse iNKT hybridoma. Nature of the experiment: iNKT hybridoma stimulation assay (Table 3 comments). The class given is cell-based. The source says: (§2) The ability of a composition of the present invention to modulate an immune response can be readily determined by an in vitro assay. NKT cells for use in the assays include transformed NKT cell lines, or NKT cells which are isolated from a mammal, e.g., from a human or from a rodent such as a mouse. NKT cells can be isolated from a mammal by sorting cells that bind CD1d:α-GalCer tetramers. See, for example, Benlagha et al., J Exp Med 191 (2000), pp. 1895-1903; Matsuda et al., J Exp Med 192 (2000), pp. 741-754; and Karadimitris et al., Proc Natl Acad Sci USA 98 (2001), pp. 3294-3298. A suitable assay to determine if a compound of the present invention is capable of modulating the activity of NKT cells is conducted by coculturing NKT cells and antigen presenting cells, adding the particular compound of interest to the culture medium that targets either the antigen presenting cells or the NKT cells directly, and measuring IL-4 or IFN-γ production. A significant increase or decrease in IL-4 or IFN-γ production over the same co-culture of cells in the absence of the compound of the invention or, preferably, in the presence of a compound of the invention with a non-targeting antibody indicates stimulation or inhibition of NKT cells.
The NKT cells employed in the assays are incubated under conditions suitable for proliferation. For example, an NKT cell hybridoma is suitably incubated at about 37° C. and 5% CO2 in complete culture medium (RPMI 1640 supplemented with 10% FBS, penicillin/streptomycin, L-glutamine and 5×10−5 M 2-mercaptoethanol). Serial dilutions of the compound can be added to the NKT cell culture medium.

A further experiment relates to SLE in NZB/W F1 mice. As to the kind of experiment: SLE in NZB/W F1 mice (Table 3 comments). The class given is in vivo, mouse.
The test system of experiment [2] is iNKT cells. Nature of the experiment: Activity in vivo of ceramide-like glycolipid antigens, serum cytokine response (Table 3). The note with it: serum cytokines. The source says:
In vivo assays also may be suitably employed to determine the ability of a composition of the invention to modulate the activity of NKT cells. For example, a composition of interest can be assayed for its ability to stimulate NKT cell activation or inhibit tumor growth. For example, a composition of the invention can be administered to a mammal such as a mouse, before or after challenge with a tumorigenic dose of transformed cells and the presence or size of growing tumors may be monitored.

Another experiment deals with splenocytes. As to the kind of experiment: Splenocyte stimulation assay: proliferation and cytokine secretion (Table 3 comments). In kind it is cell-based, mouse. The note with it: for Comments: cytokine secretion (IL-4, IFNγ): cytokine secretion assays; for Comments: IL-4 relative to IFNγ: in vitro with splenocytes from NZB/W F1 mice.
Description: as §2, §1

The test system of experiment [3] is iNKT cells. The note with it: reported by others, in vivo IFNγ; cited from earlier work.
Experiment [4] relates to mouse iNKT hybridoma / human CD1d + HeLa cells. Nature of the experiment: Presentation to mouse iNKT hybridoma by human CD1d + HeLa cells (Table 3 comments). In kind it is cell-based.

In the case of `CCCCCCCCCCCCCCCCCCCCCCCC(=O)N[C@@H](COC1OC(CO)C(O)C(O)C1O)[C@H](O)[C@H](O)CCCCC` (stereo partly drawn) [AH04-1, reference compound], the “Comments: recognition by human iNKT cells” value in the experiment with human iNKT cells was “seems NOT to be recognized by human iNKT cells”. In the experiment on iNKT cells [1], the “Comments: iNKT agonist activity and cytokine profile in words” value is “Weaker agonist than DB03-4 in our hands, and skewing of cytokine response not very impressive in most assays”.

For the compound `CCCCCCCCCCCCCCCCCCCCCCCC(=O)N[C@@H](COC1OC(CO)C(O)C(O)C1O)[C@H](O)CCCCCC` (stereo partly drawn) [AH04-2], the “Comments: activity in iNKT hybridoma stimulation assay” value in the experiment on mouse iNKT hybridoma was “About a half log more potent than OCH in hybridoma stimulation assay”.

As for `CCCCCCCCCCCCCCCCCCCCCCCC(=O)N[C@@H](COC1OC(CO)C(O)C(O)C1O)[C@H](O)[C@H](O)CCCCCCCCCCCCCC` (stereo partly drawn) [DB02-1], in the experiment with iNKT cells [1], the “Comments: iNKT agonist activity and cytokine profile in words” value is “Moderate to weak iNKT agonist in vitro and in vivo. Gives reasonably strong early IL-4 response, with reduced late IFNγ like DB03-4 or OCH”.

For the compound `CCCC/C=C\C/C=C\CCCCCCCCCC(=O)N[C@@H](COC1OC(CO)C(O)C(O)C1O)[C@H](O)[C@H](O)CCCCCCCCCCCCCC` (stereo partly drawn) [DB03-4], the “Comments: iNKT agonist activity and cytokine profile in words” value in the experiment on iNKT cells [1] was ““Type 2 Cytokine bias”: Strong inducer of iNKT cell IL-4 response, with blunted IFNγ and NK cell transactivation”.

As for `CCCCC/C=C\C/C=C\C/C=C\C/C=C\CCCC(=O)N[C@@H](COC1OC(CO)C(O)C(O)C1O)[C@H](O)[C@H](O)CCCCCCCCCCCCCC` (stereo partly drawn) [DB03-5], the “Comments: iNKT agonist activity and cytokine profile in words” value in the experiment with iNKT cells [1] was ““Type 2 Cytokine bias”: Strong inducer of iNKT cell IL-4 response, with blunted IFNγ and NK cell transactivation”.

Take `CCCCCCCCCCCCCCCCCCCCCCCC(=O)N[C@@H](COC1OC(C)[C@@H](O)C(O)C1O)[C@H](O)[C@H](O)CCCCCCCCCCCCCC` (stereo partly drawn) [DB03-8]: the “Comments: iNKT agonist activity and cytokine profile in words” value in the experiment with iNKT cells [1] is on record as “Weak iNKT agonist activity in vitro”. Moreover, the “Comments: effect on SLE” value in the experiment on SLE in NZB/W F1 mice is “exacerbates SLE in NZB/W F1 mice”. Further, in the experiment on iNKT cells [2], the “Comments: in vivo cytokine response in words” value was “No serum cytokine response in vivo”.

On to `CCCCCCCCCCCCCCCCCCCCCCCCCC(=O)N[C@@H](COC1OC(CO)C(O)C(O)C1O)[C@H](O)[C@H](O)CCCCCCCCCCCCCC` (stereo partly drawn) [DB04-1 (KRN 7000), reference compound], for which the “Comments: iNKT agonist activity and cytokine profile in words” value in the experiment with iNKT cells [1] is “KRN7000. Strong agonist, mixed IL-4 and IFNγ response both in vivo and in vitro”.

Consider `CCCCC/C=C\C=C\CCCCCCCCC(=O)N[C@@H](COC1OC(CO)C(O)C(O)C1O)[C@H](O)[C@H](O)CCCCCCCCCCCCCC` (stereo partly drawn) [DB05-9], for which the “Comments: iNKT agonist activity and cytokine profile in words” value in the experiment on iNKT cells [1] is recorded as “A potent Th2-biased agonist in vitro. Not tested yet in vivo (122206)”.

In the case of `CCCCCC/C=C\C=C/CCCCCCCC(=O)N[C@@H](COC1OC(CO)C(O)C(O)C1O)[C@H](O)[C@H](O)CCCCCCCCCCCCCC` (stereo partly drawn) [DB05-11], in the experiment on iNKT cells [1], the “Comments: iNKT agonist activity and cytokine profile in words” value is listed as “A potent Th2-biased analogue similar to DB05-9”. For the same compound, in the experiment with splenocytes, the “Comments: splenocyte proliferation” value is “possibly more active in proliferation assay”.

As for `CCCCC\C=C/C=C/C=C/CCCCCCC(=O)N[C@@H](COC1OC(CO)C(O)C(O)C1O)[C@H](O)[C@H](O)CCCCCCCCCCCCCC` (stereo partly drawn) [DB05-14], in the experiment on splenocytes, the “Comments: cytokine secretion (IL-4, IFNγ)” value (shortened to “Comments: cytokine secretion”) is “strong IL-4 secretion bias” and the “Comments: splenocyte proliferation” value is “Very active in prolif”.

In the case of `CCCC/C=C/C=C/C=C\CCCCCCCC(=O)N[C@@H](COC1OC(CO)C(O)C(O)C1O)[C@H](O)[C@H](O)CCCCCCCCCCCCCC` (stereo partly drawn) [DB05-17], in the experiment on splenocytes, the “Comments: cytokine secretion” value is listed as “moderately strong in cytokine secretion assays with moderate IL-4 predominance” and the “Comments: splenocyte proliferation” value is recorded as “Weak in splenocyte prolif”.

Turning to `CCCCCCCCCCCCCCCCCCCCCCCCCC(=O)N[C@@H](COC1OC(C)[C@@H](O)C(O)C1O)[C@H](O)[C@H](O)CCCCCCCCCCCCCC` (stereo partly drawn) [DB06-14], in the experiment on splenocytes, the “Comments: cytokine secretion” value was “moderate IL-4 secretion at high concentration with weak IFNg” and the “Comments: splenocyte proliferation” value was “Minimal or no prolif”. The “Comments: activity in splenocyte stimulation assay” value with splenocytes (overall activity) is “Weakly active in splenocyte stimulation in vitro”.

For the compound `CCCCC/C=C\C/C=C\CCCCCCCCCC(=O)N[C@@H](COC1OC(CO)C(O)C(O)C1O)[C@H](O)[C@H](O)CCCCCCCCCCCCCC` (stereo partly drawn) [DB06-15], in the experiment with splenocytes, the “Comments: cytokine secretion” value is “Weak IL-4 and even weaker INFg secretion”; the “Comments: splenocyte proliferation” value is “Moderately active in splenocyte prolif”.

Regarding `CCCCCCCCCCCCCCCCCCCCCCCCCC(=O)N[C@@H](CCC1OC(CO)C(O)C(O)C1O)[C@H](O)[C@H](O)CCCCCCCCCCCCCC` (stereo partly drawn) [RF03-1], the “Comments: reported agonist activity” value in the experiment with iNKT cells [3] was “C-glycoside of KRN7000. Reported to be strong agonist, with enhanced IFNγ production in vivo. May have slower kinetics of activation”.

Take `CCCCCCCCCCCCCCCCCCCCCCCCCC(=O)N[C@@H](CSC1OC(CO)C(O)C(O)C1O)[C@H](O)[C@H](O)CCCCCCCCCCCCCC` (stereo partly drawn) [SKRN 7000, reference compound]: in the experiment on mouse iNKT hybridoma, the “Comments: activity in iNKT hybridoma stimulation assay” value is listed as “No agonist activity in iNKT hybridoma assay” and the “Comments: autoreactivity of iNKT cell hybridoma” value is “seemed to reduce autoreactivity of iNKT cell hybridoma”.

Regarding `CCCCCCCCCCCCCCCCCC(=O)N[C@@H](COC1OC(CO)C(O)C(O)C1O)[C@H](O)[C@H](O)CCCCCCCCCCCCCC` (stereo partly drawn) [YTC03-15], in experiment [4], the “Comments: activity when presented to mouse iNKT hybridoma by human CD1d + HeLa cells” value is reported as “EXTREMELY active when presented to mouse iNKT hybridoma by human CD1d + HeLa cells”.

Turning to `CCCCCCCCCCCCCC[C@@H](O)[C@@H](O)[C@H](COC1OC(CO)C(O)C(O)C1O)NC(=O)C(c1ccccc1)c1ccccc1` (stereo partly drawn) [YTC03-17], the “Comments: iNKT agonist activity and cytokine profile in words” value in the experiment with iNKT cells [1] was “Very strong agonist in some in vitro studies”. In addition, the “Comments: in vivo cytokine response in words” value in the experiment with iNKT cells [2] is “no activity detectable in vivo (cytokine stimulation)”.

Take `CCCCCCCCCCCCCC[C@@H](O)[C@@H](O)[C@H](COC1OC(CO)C(O)C(O)C1O)NC(=O)Cc1ccc(OC)c(OC)c1` (stereo partly drawn) [YTC03-24]: the “Comments: IL-4 relative to IFNγ” value with splenocytes is “Possible enhanced IL-4 relative to IFNγ in vitro with splenocytes from NZB/W F1 mice”.

On to `CCCCCCCCCCCCCC[C@@H](O)[C@@H](O)[C@H](COC1OC(CO)C(O)C(O)C1O)NC(=O)Cc1ccc(F)cc1` (stereo partly drawn) [YTC03-30], for which the “Comments: IL-4 relative to IFNγ” value with splenocytes is given as “Possible enhanced IL-4 relative to IFNγ”. Further, in experiment [4], the “Comments: activity when presented to mouse iNKT hybridoma by human CD1d + HeLa cells” value is given as “EXTREMELY active”.

Regarding `CCCCCCCCCCCCCC[C@@H](O)[C@@H](O)[C@H](COC1OC(CO)C(O)C(O)C1O)NC(=O)CCCCCCCCC` (stereo partly drawn) [YTC03-34], in the experiment on mouse iNKT hybridoma, the “Comments: activity in iNKT hybridoma stimulation assay” value is on record as “Moderate activity with mouse iNKT hybridoma”. Moreover, the “Comments: in vivo cytokine response in words” value in the experiment with iNKT cells [2] is “Active in vivo with good IL-4 production assoc. with weak IFNgamma and weak IL-12 p70”.
